Experiments:
Assay type in all cases: in vivo
kochia (Kochia scoparia) = assay: Test C greenhouse herbicide test, postemergence
Method in brief: (§1)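 Ratings are visual scores from 0 (no effect) to 100 (complete control), made against controls 13–15 d after treatment. Postemergence sprays were applied in the greenhouse to plants 2–18 cm tall (1- to 4-leaf stage) in peat-moss/vermiculite potting medium.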

[1] = test system: oat, wild (wild oat, Avena fatua); assay: Test C greenhouse herbicide test, postemergence
Method in brief: as §1

[2] = test system: velvetleaf (Abutilon theophrasti); assay: Test C greenhouse herbicide test, pre- and postemergence
Source text: (§2) Seeds of plant species selected from blackgrass (Alopecurus myosuroides), ryegrass, Italian (Italian ryegrass, Lolium multiflorum), wheat (winter wheat, Triticum aestivum), galium (catchweed bedstraw, Galium aparine), corn (Zea mays), large crabgrass, large (large crabgrass, Digitaria sanguinalis), foxtail, giant (giant foxtail, Setaria faberii), johnsongrass (Sorghum halepense), lambsquarters (Chenopodium album), morningglory (Ipomoea coccinea), nutsedge, yellow (yellow nutsedge, Cyperus esculentus), pigweed (Amaranthus retroflexus), ragweed (common ragweed, Ambrosia elatior), soybean (Glycine max), barnyardgrass (Echinochloa crus-galli), oilseed rape (Brassica napus), waterhemp (common waterhemp, Amaranthus rudis), and velvetleaf (Abutilon theophrasti) were planted into a blend of loam soil and sand and treated preemergence with test chemicals formulated in a non-phytotoxic solvent mixture which included a surfactant.
(§3) At the same time, plants selected from these crop and weed species and also chickweed (common chickweed, Stellaria media), kochia (Kochia scoparia), and oat, wild (wild oat, Avena fatua), were planted in pots containing Redi-Earth® planting medium (Scotts Company, 14111 Scottslawn Road, Marysville, Ohio 43041) comprising spaghnum peat moss, vermiculite, wetting agent and starter nutrients and treated with postemergence applications of test chemicals formulated in the same manner. Plants ranged in height from 2 to 18 cm (1- to 4-leaf stage) for postemergence treatments. Treated plants and controls were maintained in a greenhouse for 13 to 15 d, after which time all species were compared to controls and visually evaluated. Plant response ratings, summarized in Table C, are based on a scale of 0 to 100 where 0 is no effect and 100 is complete control. A dash (-) response means no test result.

[3] = test system: wheat (winter wheat, Triticum aestivum); assay: as above
Source text: as §2, §3

[4] = test system: lambsquarters (Chenopodium album); assay: as above
Source text: as §2, §3

[5] = test system: nutsedge, yellow (yellow nutsedge, Cyperus esculentus); assay: as above
Source text: as §2, §3

[6] = test system: waterhemp (common waterhemp, Amaranthus rudis); assay: as above
Source text: as §2, §3

[7] = test system: foxtail, giant (giant foxtail, Setaria faberii); assay: as above
Source text: as §2, §3

[8] = test system: barnyardgrass (Echinochloa crus-galli); assay: as above
Source text: as §2, §3

[9] = test system: crabgrass, large (large crabgrass, Digitaria sanguinalis); assay: as above
Source text: as §2, §3

[10] = test system: pigweed (Amaranthus retroflexus); assay: as above
Source text: as §2, §3

corn (Zea mays) = assay: as above
Source text: as §2, §3

[11] = test system: johnsongrass (Sorghum halepense); assay: as above
Source text: as §2, §3

[12] = test system: blackgrass (Alopecurus myosuroides); assay: as above
Source text: as §2, §3

[13] = test system: morningglory (Ipomoea coccinea); assay: as above
Source text: as §2, §3

[14] = test system: oilseed rape (Brassica napus); assay: as above
Source text: as §2, §3

[15] = Postemergence, 31 g ai/ha, 0 to 100 scale (0 no effect, 100 complete control)
[16] = Postemergence, 125 g ai/ha, scale 0 to 100, 0 is no effect, 100 is complete control
[17] = Postemergence, 250 g ai/ha, scale 0 to 100, 0 no effect, 100 complete control, 13 to 15 d
[18] = postemergence, 62 g ai/ha, scale 0 to 100, 0 no effect, 100 complete control
[19] = Preemergence, 31 g ai/ha, scale 0 to 100, 0 is no effect, 100 is complete control
[20] = Preemergence, 62 g ai/ha, scale 0 to 100, 0 is no effect, 100 is complete control
[21] = Preemergence, 125 g ai/ha, scale 0 to 100, 0 is no effect, 100 is complete control
[22] = Preemergence, 250 g ai/ha, scale 0 to 100 (0 no effect, 100 complete control)
[23] = Postemergence, 16 g ai/ha, scale 0 to 100 (0 no effect, 100 complete control)

CCOC(=O)Oc1c(C)nn(C)c(=O)c1-c1c(CC)ccc2ccccc12 [Compound 37]
Kochia plant response rating (kochia (Kochia scoparia); [15]): 0
Plant response rating, Kochia (kochia (Kochia scoparia); [16]): 5
Plant response rating, Kochia (kochia (Kochia scoparia); [17]): 80
Kochia plant response rating (kochia (Kochia scoparia); [18]): 0
Oat, Wild plant response rating [1, 15]: 60
Plant response rating, Oat, Wild [1, 16]: 90
Plant response rating, Oat, Wild [1, 17]: 90
Oat, Wild plant response rating [1, 18]: 80
Velvetleaf plant response rating [2, 15]: 20
Plant response rating, Velvetleaf [2, 16]: 85
Plant response rating, Velvetleaf [2, 17]: 90
Plant response rating, Velvetleaf [2, 19]: 25
Plant response rating, Velvetleaf [2, 20]: 80
Plant response rating, Velvetleaf [2, 21]: 85
Velvetleaf plant response rating [2, 22]: 90
Velvetleaf plant response rating [2, 18]: 70
Wheat plant response rating [3, 15]: 30
Plant response rating, Wheat [3, 16]: 30
Plant response rating, Wheat [3, 17]: 35
Plant response rating, Wheat [3, 19]: 0
Plant response rating, Wheat [3, 20]: 0
Plant response rating, Wheat [3, 21]: 5
Wheat plant response rating [3, 22]: 45
Wheat plant response rating [3, 18]: 0
Lambsquarters plant response rating [4, 15]: 90
Plant response rating, Lambsquarters [4, 16]: 95
Plant response rating, Lambsquarters [4, 17]: 100
Plant response rating, Lambsquarters [4, 19]: 85
Plant response rating, Lambsquarters [4, 20]: 60
Plant response rating, Lambsquarters [4, 21]: 85
Lambsquarters plant response rating [4, 22]: 90
Lambsquarters plant response rating [4, 18]: 90
Nutsedge, Yellow plant response rating [5, 15]: 20
Plant response rating, Nutsedge, Yellow [5, 16]: 65
Plant response rating, Nutsedge, Yellow [5, 17]: 60
Plant response rating, Nutsedge, Yellow [5, 19]: 0
Plant response rating, Nutsedge, Yellow [5, 20]: 20
Plant response rating, Nutsedge, Yellow [5, 21]: 40
Nutsedge, Yellow plant response rating [5, 22]: 60
Nutsedge, Yellow plant response rating [5, 18]: 40
Waterhemp plant response rating [6, 15]: 85
Plant response rating, Waterhemp [6, 16]: 80
Plant response rating, Waterhemp [6, 17]: 98
Plant response rating, Waterhemp [6, 19]: 90
Plant response rating, Waterhemp [6, 20]: 95
Plant response rating, Waterhemp [6, 21]: 95
Waterhemp plant response rating [6, 22]: 100
Waterhemp plant response rating [6, 18]: 80
Foxtail, Giant plant response rating [7, 15]: 25
Plant response rating, Foxtail, Giant [7, 16]: 60
Plant response rating, Foxtail, Giant [7, 17]: 85
Plant response rating, Foxtail, Giant [7, 19]: 65
Plant response rating, Foxtail, Giant [7, 20]: 75
Plant response rating, Foxtail, Giant [7, 21]: 85
Foxtail, Giant plant response rating [7, 22]: 85
Foxtail, Giant plant response rating [7, 18]: 35
Barnyardgrass plant response rating [8, 15]: 25
Plant response rating, Barnyardgrass [8, 16]: 60
Plant response rating, Barnyardgrass [8, 17]: 90
Plant response rating, Barnyardgrass [8, 19]: 10
Plant response rating, Barnyardgrass [8, 20]: 30
Plant response rating, Barnyardgrass [8, 21]: 70
Barnyardgrass plant response rating [8, 22]: 80
Barnyardgrass plant response rating [8, 18]: 20
Crabgrass, Large plant response rating [9, 15]: 10
Plant response rating, Crabgrass, Large [9, 16]: 25
Plant response rating, Crabgrass, Large [9, 17]: 35
Plant response rating, Crabgrass, Large [9, 19]: 5
Plant response rating, Crabgrass, Large [9, 20]: 5
Plant response rating, Crabgrass, Large [9, 21]: 20
Crabgrass, Large plant response rating [9, 22]: 25
Crabgrass, Large plant response rating [9, 18]: 20
Pigweed plant response rating [10, 15]: 85
Plant response rating, Pigweed [10, 16]: 95
Plant response rating, Pigweed [10, 17]: 95
Plant response rating, Pigweed [10, 19]: 98
Plant response rating, Pigweed [10, 20]: 98
Plant response rating, Pigweed [10, 21]: 100
Pigweed plant response rating [10, 22]: 100
Pigweed plant response rating [10, 18]: 100
Corn plant response rating (corn (Zea mays); [15]): 0
Plant response rating, Corn (corn (Zea mays); [16]): 20
Plant response rating, Corn (corn (Zea mays); [17]): 30
Plant response rating, Corn (corn (Zea mays); [19]): 0
Plant response rating, Corn (corn (Zea mays); [20]): 0
Plant response rating, Corn (corn (Zea mays); [21]): 0
Corn plant response rating (corn (Zea mays); [22]): 20
Corn plant response rating (corn (Zea mays); [18]): 10
Johnsongrass plant response rating [11, 15]: 0
Plant response rating, Johnsongrass [11, 16]: 5
Plant response rating, Johnsongrass [11, 17]: 35
Plant response rating, Johnsongrass [11, 19]: 0
Plant response rating, Johnsongrass [11, 20]: 0
Plant response rating, Johnsongrass [11, 21]: 5
Johnsongrass plant response rating [11, 22]: 0
Johnsongrass plant response rating [11, 18]: 5
Blackgrass plant response rating [12, 15]: 35
Plant response rating, Blackgrass [12, 16]: 80
Plant response rating, Blackgrass [12, 17]: 85
Plant response rating, Blackgrass [12, 19]: 10
Plant response rating, Blackgrass [12, 20]: 30
Plant response rating, Blackgrass [12, 21]: 90
Blackgrass plant response rating [12, 22]: 90
Blackgrass plant response rating [12, 18]: 40
Morningglory plant response rating [13, 15]: 90
Plant response rating, Morningglory [13, 16]: 98
Plant response rating, Morningglory [13, 17]: 98
Plant response rating, Morningglory [13, 19]: 70
Plant response rating, Morningglory [13, 20]: 80
Plant response rating, Morningglory [13, 21]: 90
Morningglory plant response rating [13, 22]: 98
Morningglory plant response rating [13, 18]: 95
Oilseed Rape plant response rating [14, 15]: 40
Plant response rating, Oilseed Rape [14, 16]: 40
Plant response rating, Oilseed Rape [14, 17]: 50
Plant response rating, Oilseed Rape [14, 19]: 0
Plant response rating, Oilseed Rape [14, 20]: 40
Plant response rating, Oilseed Rape [14, 21]: 60
Oilseed Rape plant response rating [14, 22]: 90
Oilseed Rape plant response rating [14, 18]: 20

COc1ccc2ccccc2c1-c1c(O)c(C)nn(C)c1=O [Compound 40]
Plant response rating, Kochia (kochia (Kochia scoparia); [23]): 20
Kochia plant response rating (kochia (Kochia scoparia); [15]): 70
Plant response rating, Kochia (kochia (Kochia scoparia); [16]): 0
Kochia plant response rating (kochia (Kochia scoparia); [18]): 80
Plant response rating, Oat, Wild [1, 23]: 5
Oat, Wild plant response rating [1, 15]: 35
Plant response rating, Oat, Wild [1, 16]: 60
Oat, Wild plant response rating [1, 18]: 50
Plant response rating, Velvetleaf [2, 23]: 5
Velvetleaf plant response rating [2, 15]: 5
Plant response rating, Velvetleaf [2, 16]: 20
Velvetleaf plant response rating [2, 18]: 10
Plant response rating, Wheat [3, 23]: 0
Wheat plant response rating [3, 15]: 10
Plant response rating, Wheat [3, 16]: 10
Wheat plant response rating [3, 18]: 10
Plant response rating, Lambsquarters [4, 23]: 50
Lambsquarters plant response rating [4, 15]: 70
Plant response rating, Lambsquarters [4, 16]: 80
Lambsquarters plant response rating [4, 18]: 70
Plant response rating, Nutsedge, Yellow [5, 23]: 0
Nutsedge, Yellow plant response rating [5, 15]: 0
Plant response rating, Nutsedge, Yellow [5, 16]: 20
Nutsedge, Yellow plant response rating [5, 18]: 15
Plant response rating, Waterhemp [6, 23]: 20
Waterhemp plant response rating [6, 15]: 65
Plant response rating, Waterhemp [6, 16]: 80
Waterhemp plant response rating [6, 18]: 65
Plant response rating, Foxtail, Giant [7, 23]: 5
Foxtail, Giant plant response rating [7, 15]: 5
Plant response rating, Foxtail, Giant [7, 16]: 20
Foxtail, Giant plant response rating [7, 18]: 15
Plant response rating, Barnyardgrass [8, 23]: 5
Barnyardgrass plant response rating [8, 15]: 5
Plant response rating, Barnyardgrass [8, 16]: 25
Barnyardgrass plant response rating [8, 18]: 15
Plant response rating, Crabgrass, Large [9, 23]: 5
Crabgrass, Large plant response rating [9, 15]: 5
Plant response rating, Crabgrass, Large [9, 16]: 10
Crabgrass, Large plant response rating [9, 18]: 5
Plant response rating, Pigweed [10, 23]: 15
Pigweed plant response rating [10, 15]: 35
Plant response rating, Pigweed [10, 16]: 85
Pigweed plant response rating [10, 18]: 65
Plant response rating, Corn (corn (Zea mays); [23]): 0
Corn plant response rating (corn (Zea mays); [15]): 0
Plant response rating, Corn (corn (Zea mays); [16]): 20
Corn plant response rating (corn (Zea mays); [18]): 0
Plant response rating, Johnsongrass [11, 23]: 0
Johnsongrass plant response rating [11, 15]: 0
Plant response rating, Johnsongrass [11, 16]: 5
Johnsongrass plant response rating [11, 18]: 5
Plant response rating, Blackgrass [12, 23]: 5
Blackgrass plant response rating [12, 15]: 5
Plant response rating, Blackgrass [12, 16]: 45
Blackgrass plant response rating [12, 18]: 15
Plant response rating, Morningglory [13, 23]: 5
Morningglory plant response rating [13, 15]: 55
Plant response rating, Morningglory [13, 16]: 80
Morningglory plant response rating [13, 18]: 65
Plant response rating, Oilseed Rape [14, 23]: 0
Oilseed Rape plant response rating [14, 15]: 5
Plant response rating, Oilseed Rape [14, 16]: 5
Oilseed Rape plant response rating [14, 18]: 30

Reference: US10597388B2, “Pyridazinone herbicides” (FMC CORPORATION, priority 2014, dated 2020)
